Assay results: article PMC5427467, “Isolation and characterization of phthalates from Brevibacterium mcbrellneri that cause cytotoxicity and cell cycle arrest” (EXCLI Journal, 2017)
Values after ≈ are worked out from the molar mass of the structure shown. Like-named read-outs stand apart in the source and are kept apart here.

Key:
[1] = system: Bacillus subtilis (MTCC 441); assay: Anti-bacterial activity, MIC in 96-well broth dilution; format: cell-based; conditions: MTCC441, B. subtilis, 24 hrs at 37 °C
Experimental: (§1) The antibacterial evaluation was carried out against Gram positive bacteria; Staphylococcus epidermidis (MTCC 435), Bacillus subtilis (MTCC 441), Staphylococcus aureus (MTCC 96), and Gram negative bacteria; Pseudomonas aeruginosa (MTCC 741), E. coli (MTCC 443) and Klebsiella pneumoniae (MTCC 618). Brevibacterium mcbrellneri MTCC (3913) was chosen for isolation of biologically active compounds.
(§2) The minimum inhibitory concentrations (MIC) were recorded against Staphylococcus aureus, Bacillus subtilis, Staphylococcus epidermidis, Pseudomonas aeruginosa, Escherichia coli and Klebsiella pneumoniae. In brief 96-well plates were distributed with Nutrient broth and the compounds in different concentrations (150 μg/mL to 0.5μg/mL). 50 μL microbial suspensions were seeded into each well (0.5 MacFarland standards) to make the final volume of 200 μl with culture broth. The plates were incubated for 24 hrs at 37 °C. The lowest concentration, at which the visible inhibition was recorded, was considered as MIC. Streptomycin and Benzylpenicillin were used as positive controls.

E. coli (MTCC 443) = assay: as above; format: cell-based; conditions: Escherichia coli, MTCC443, 24 hrs at 37 °C
Experimental: as §1, §2

[2] = system: Klebsiella pneumoniae (MTCC 618); assay: as above; format: cell-based; conditions: MTCC618, K. pneumoniae, 24 hrs at 37 °C
Experimental: as §1, §2

[3] = system: Pseudomonas aeruginosa (MTCC 741); assay: as above; format: cell-based; conditions: MTCC741, P. aeroginosa, 24 hrs at 37 °C
Experimental: as §1, §2

[4] = system: Staphylococcus aureus (MTCC 96); assay: as above; format: cell-based; conditions: MTCC96, S. aureus, 24 hrs at 37 °C
Experimental: as §1, §2

[5] = system: Staphylococcus epidermidis (MTCC 435); assay: as above; format: cell-based; conditions: MTCC435, S. epidermidis, 24 hrs at 37 °C
Experimental: as §1, §2

[6] = system: 4th instar larvae of Aedes aegypti; assay: Larvicidal bioassay/Dose-response bioassay; format: in vivo; conditions: 4th instar Aedes aegypti larvae, 24 h exposure
Experimental: The early 4th instar larvae of Aedes aegypti were selected for evaluation of mosquito larvicidal activity. The larvae were collected and fed with a mixture powdered yeast and dog biscuits. These were maintained in insectaries till the emergence of adults. The colony was photo periodically maintained at 14 L: 10 D (hours) and with relative humidity 80 ± 5 % at 28 °C (Kumar et al., 2010[16]). Adult mosquitoes were fed with blood for egg maturation. The eggs were allowed to hatch in an enamel bowl lined with Whatman filter paper filled with distilled water. The pupae formed were separated and transferred to insectary for the emergence of adults (da Silva et al., 2016[6]).
Based on the preliminary screening results, different concentrations ranging from 25 to 200 ppm were prepared for DEHP and 25 to 1 ppm for DBP were used. The compounds were subjected to dose response bioassay against 4th instar larvae of Aedes aegypti larvae. Dead larvae were counted after 24 h of exposure, and the percentage mortality was reported from the average of triplicates (Govindarajan et al., 2016[9]).

CHO = assay: MTT cell proliferation assay; format: cell-based; conditions: Cricetulus griseus, 24 hrs
Experimental: (§3) The MTT cell proliferation was assessed against the cell lines HeLa (ATCC; CCL-2), A549 (ATCC; CCL-185), MCF-7 (ATCC; HTB-22), DU145 (ATCC; HTB-81), CHO (ATCC; CCL-61), HEK293 (ATCC; CRL-1573), NIH3T3 (ATCC; CRL-1658) were procured from the American Type Culture Collection (ATCC). These cell lines were grown and maintained in Dulbecco's modified Eagle's medium with non-essential amino acids, 10 % fetal bovine serum (FBS), 1 mM sodium pyruvate, in humidified atmosphere containing 5 % CO2 at 37 °C (Esumi et al., 2004[7]).
(§4) The cell lines were seeded in 96-well plates in 200 µL aliquots. The test compounds in different concentrations were added and incubated at 37 °C for 24 hrs. Doxorubicin was used as positive control (Prata-Sena et al., 2016[28]).

DU-145 = assay: MTT cell proliferation assay; format: cell-based; conditions: Homo sapiens; DU-145, MTT, 24 hrs
Experimental: as §3, §4

HEK 293 = assay: MTT cell proliferation assay; format: cell-based; conditions: Homo sapiens, HEK293; HEK 293, MTT, 24 hrs
Experimental: as §3, §4

MCF-7 = assay: MTT cell proliferation assay; format: cell-based; conditions: Homo sapiens, MCF7; MCF-7, MTT, 24 hrs
Experimental: as §3, §4

E. coli = system: E. coli; parameters: method as in Roy et al., 2006 [30]; conditions: DBP isolated from Streptomyces albidoflavus, ref Roy et al., 2006 [30]; cited from earlier work
B. subtilis [7] = system: B. subtilis; parameters: method as in Roy et al., 2006 [30]; conditions: DBP isolated from Streptomyces albidoflavus, ref Roy et al., 2006 [30]; cited from earlier work
S. typhi = system: S. typhi; parameters: method as in Roy et al., 2006 [30]; conditions: DBP isolated from Streptomyces albidoflavus, ref Roy et al., 2006 [30]; cited from earlier work
S. cerevisiae = system: S. cerevisiae; parameters: method as in Roy et al., 2006 [30]; conditions: DBP isolated from Streptomyces albidoflavus, ref Roy et al., 2006 [30]; cited from earlier work
A. niger = system: A. niger; parameters: method as in Roy et al., 2006 [30]; conditions: DBP isolated from Streptomyces albidoflavus, ref Roy et al., 2006 [30]; cited from earlier work
Curvularia pallescens = system: Curvularia pallescens; parameters: method as in Roy et al., 2006 [30]; conditions: DBP isolated from Streptomyces albidoflavus, ref Roy et al., 2006 [30]; cited from earlier work
A549 cells = system: A549 cells; parameters: method as in Hsu et al., 2011 [14]; conditions: ref Hsu et al., 2011 [14]; cited from earlier work
B. subtilis [8] = system: B. subtilis; parameters: method as in Habib and Karim, 2009 [10]; conditions: DEHP isolated from Calotropis gigantean, ref Habib and Karim, 2009 [10]; cited from earlier work
Sarcina lutea = system: Sarcina lutea; parameters: method as in Habib and Karim, 2009 [10]; conditions: DEHP isolated from Calotropis gigantean, ref Habib and Karim, 2009 [10]; cited from earlier work
[9] = parameters: method as in Habib and Karim, 2009 [10]; conditions: DEHP isolated from Calotropis gigantean; ref Habib and Karim, 2009 [10]; cited from earlier work
HaCaT cells = system: HaCaT cells; parameters: method as in Peropadre et al., 2015 [26]; conditions: ref Peropadre et al., 2015 [26]; cited from earlier work
HePG2 cells = system: HePG2 cells; parameters: method as in Lyu et al., 2016 [19]; conditions: ref Lyu et al., 2016 [19]; cited from earlier work

Row | Compound | MIC [1] [µg/mL] | MIC (E. coli (MTCC 443)) [µg/mL] | MIC [2] [µg/mL] | MIC [3] [µg/mL] | MIC [4] [µg/mL] | MIC [5] [µg/mL] | LC50 [6] [ppm] | IC50 (CHO) [µg/mL] | IC50 (DU-145) [µg/mL] | IC50 (HEK 293) [µg/mL] | IC50 (MCF-7) [µg/mL] | further results
1 | CCCCOC(=O)c1ccccc1C(=O)OCCCC [DBP, dibutyl phthalate] | 18.8 (≈ 67.4 µM) | 37.5 (≈ 135 µM) | 75 (≈ 269 µM) | 37.5 (≈ 135 µM) | 37.5 (≈ 135 µM) | 18.8 (≈ 67.4 µM) | 1.62 | 36 ± 8.6 (≈ 129 µM) | 31.2 ± 8.7 (≈ 112 µM) | 19.8 ± 10 (≈ 71 µM) | 32.4 ± 3.6 (≈ 117 µM) | mortality at 25 ppm ([6]; at 25 ppm): 100%; MIC (E. coli): 53 µg/mL (≈ 190 µM); MIC (B. subtilis [7]): 84 µg/mL (≈ 302 µM); MIC (S. typhi): 76 µg/mL (≈ 273 µM); MIC (S. cerevisiae): 92 µg/mL (≈ 331 µM); MIC (A. niger): 98 µg/mL (≈ 352 µM); MIC (Curvularia pallescens): 117 µg/mL (≈ 420 µM); cytotoxic activity (A549 cells): Cytotoxic activity
2 | CCCCC(CC)COC(=O)c1ccccc1C(=O)OCC(CC)CCCC (centres unmarked) [DEHP, di-(2-ethylhexyl) phthalate] | 37.5 (≈ 96 µM) | 37.5 (≈ 96 µM) | 75 (≈ 192 µM) | 75 (≈ 192 µM) | 18.8 (≈ 48 µM) | 9.37 (≈ 24 µM) | 47.65 | 193 ± 5.4 (≈ 494 µM) | 33.5 ± 7.7 (≈ 85.7 µM) | – | 46.55 ± 0.1 (≈ 119 µM) | MIC (B. subtilis [8]): 32 µg/mL (≈ 81.9 µM); MIC (Sarcina lutea): 32 µg/mL (≈ 81.9 µM); antifungal property [9]: negligible; cell cycle effect (HaCaT cells): cell cycle arrest at G1 phase; apoptosis / cell cycle effect (HePG2 cells): apoptosis without cell cycle arrest
3 | COc1cccc2c1C(=O)c1c(O)c3c(c(O)c1C2=O)C[C@@](O)(C(=O)CO)C[C@@H]3O[C@H]1C[C@H](N)[C@H](O)[C@H](C)O1 [doxorubicin, Doxorubicin, reference compound] | – | – | – | – | – | – | – | – | – | 21.8 ± 8.8 (≈ 40.1 µM) | – | –
